Source: patent publication US9511058B2, “Methods for using carboxamide, sulfonamide and amine compounds” (Rigel Pharmaceuticals, Inc., priority 2010, dated 2016)

Biological target: AMPK
Assay: AMPK activation, enzyme-linked immunosorbent assay
Assay type: biochemical
Settings: compounds of Table 1 (Table 6)

SMILES | EC50 [nM]
O=C(NC1CCN(Cc2ccncc2)CC1)c1cc(OC2CCN(c3ccc(C(F)(F)F)cc3)CC2)ccn1 [1-13, N-(1-(pyridin-4-ylmethyl)piperidin-4-yl)-4-(1-(4-(trifluoromethyl)phenyl)piperidin-4-yloxy)picolinamide] | 100 to 500
N#Cc1ccc(CN2CCC(NC(=O)c3cncc(OC4CCN(c5ccc(C(F)(F)F)cc5)CC4)c3)CC2)cc1 [1-17, N-(1-(4-cyanobenzyl)piperidin-4-yl)-5-(1-(4-(trifluoromethyl)phenyl)piperidin-4-yloxy)nicotinamide] | < 100
N#Cc1ccc(CN2CCC(NC(=O)c3ccnc(OC4CCN(c5ccc(C(F)(F)F)cc5)CC4)c3)CC2)cc1 [1-21, N-(1-(4-cyanobenzyl)piperidin-4-yl)-2-(1-(4-(trifluoromethyl)phenyl)piperidin-4-yloxy)isonicotinamide] | 100 to 500
O=C(NC1CCN(Cc2ccncc2)CC1)c1ccc(OC2CCN(c3ccc(C(F)(F)F)cc3)CC2)cn1 [1-3, N-(1-(pyridin-4-ylmethyl)piperidin-4-yl)-5-(1-(4-(trifluoromethyl)phenyl)piperidin-4-yloxy)picolinamide] | < 100
CN(C(=O)c1cc2cc(OC3CCN(c4ccc(C(F)(F)F)cc4)CC3)ccc2o1)C1CCN(Cc2ccncc2)CC1 [1-104, N-methyl-N-(1-(pyridin-4-ylmethyl)piperidin-4-yl)-5-(1-(4-(trifluoromethyl)phenyl)piperidin-4-yloxy)benzofuran-2-carboxamide] | 100 to 500
O=C(NC1CCN(Cc2ccncc2)CC1)c1ccc(OC2CCN(c3ccc(C(F)(F)F)cc3)CC2)nc1 [1-10, N-(1-(pyridin-4-ylmethyl)piperidin-4-yl)-6-(1-(4-(trifluoromethyl)phenyl)piperidin-4-yloxy)nicotinamide] | < 100
O=C(NC1CCN(Cc2cccnc2)CC1)c1sc2cc(OC3CCN(c4ccc(C(F)(F)F)cc4)CC3)ccc2c1Cl [1-152, 3-chloro-N-(1-(pyridin-3-ylmethyl)piperidin-4-yl)-6-(1-(4-(trifluoromethyl)phenyl)piperidin-4-yloxy)benzo[b]thiophene-2-carboxamide] | < 100
CN(C(=O)c1cc2cc(OC3CCN(c4ccc(C(F)(F)F)cc4)CC3)ccc2o1)C1CCN(C(=O)c2ccncc2)CC1 [1-118, N-(1-isonicotinoylpiperidin-4-yl)-N-methyl-5-(1-(4-(trifluoromethyl)phenyl)piperidin-4-yloxy)benzofuran-2-carboxamide] | 100 to 500
Cc1c(C(=O)NC2CCN(C(=O)OC(C)(C)C)CC2)oc2cc(OC3CCN(c4ccc(C(F)(F)F)cc4)CC3)ccc12 [1-61, tert-butyl 4-(3-methyl-6-(1-(4-(trifluoromethyl)phenyl)piperidin-4-yloxy)benzofuran-2-carboxamido)piperidine-1-carboxylate] | 100 to 500
N#Cc1ccccc1CN1CCC(NC(=O)c2cc3ccc(OC4CCN(c5ccc(C(F)(F)F)cc5)CC4)cc3o2)CC1 [1-98, N-(1-(2-cyanobenzyl)piperidin-4-yl)-6-(1-(4-(trifluoromethyl)phenyl)piperidin-4-yloxy)benzofuran-2-carboxamide] | < 100
N#Cc1ccc(CN2CCC(NC(=O)c3cc4ccc(OC5CCN(c6ccc(OC(F)(F)F)cc6)CC5)cc4o3)CC2)cc1 [1-89, N-(1-(4-cyanobenzyl)piperidin-4-yl)-6-(1-(4-(trifluoromethoxy)phenyl)piperidin-4-yloxy)benzofuran-2-carboxamide] | < 100
N#Cc1ccc(CN2CCC(NC(=O)c3sc4cc(OC5CCN(c6ccc(C(F)(F)F)cc6)CC5)ccc4c3Cl)CC2)cc1 [1-154, 3-chloro-N-(1-(4-cyanobenzyl)piperidin-4-yl)-6-(1-(4-(trifluoromethyl)phenyl)piperidin-4-yloxy)benzo[b]thiophene-2-carboxamide] | < 100
O=C(NC1CCN(Cc2ccncc2)CC1)c1cc2cc(OC3CCN(c4ccc(C(F)(F)F)cc4)CC3)ccc2s1 [1-138, N-(1-(pyridin-4-ylmethyl)piperidin-4-yl)-5-(1-(4-(trifluoromethyl)phenyl)piperidin-4-yloxy)benzo[b]thiophene-2-carboxamide] | < 100
O=C(NC1CCNCC1)c1sc2cc(OC3CCN(c4ccc(C(F)(F)F)cc4)CC3)ccc2c1Cl [1-148, 3-chloro-N-(piperidin-4-yl)-6-(1-(4-(trifluoromethyl)phenyl)piperidin-4-yloxy)benzo[b]thiophene-2-carboxamide] | > 10000
CC(C)(C)OC(=O)N1CCC(NC(=O)c2cc3cc(OC4CCN(c5ccc(C(F)(F)F)cc5)CC4)ccc3o2)CC1 [1-85, tert-butyl 4-(5-(1-(4-(trifluoromethyl)phenyl)piperidin-4-yloxy)benzofuran-2-carboxamido)piperidine-1-carboxylate] | 500 to 1000
O=C(NC1CCN(Cc2ccc(C(F)(F)F)cc2)CC1)c1cc2cc(OC3CCN(c4ccc(C(F)(F)F)cc4)CC3)ccc2o1 [1-100, N-(1-(4-(trifluoromethyl)benzyl)piperidin-4-yl)-5-(1-(4-(trifluoromethyl)phenyl)piperidin-4-yloxy)benzofuran-2-carboxamide] | < 100
O=C(NC1CCN(Cc2ccccc2)CC1)c1cc2cc(OC3CCN(Cc4ccc(Cl)cc4)CC3)ccc2o1 [1-72, N-(1-benzylpiperidin-4-yl)-5-(1-(4-chlorobenzyl)piperidin-4-yloxy)benzofuran-2-carboxamide] | 100 to 500
O=C(NC1CCN(Cc2ccccc2)CC1)c1cc2cc(OC3CCN(Cc4ccc(F)c(F)c4)CC3)ccc2o1 [1-74, N-(1-benzylpiperidin-4-yl)-5-(1-(3,4-difluorobenzyl)piperidin-4-yloxy)benzofuran-2-carboxamide] | 100 to 500
CC(C)(C)OC(=O)N1CCC(NC(=O)c2ccnc(OC3CCN(c4ccc(C(F)(F)F)cc4)CC3)c2)CC1 [1-15, tert-butyl 4-(2-(1-(4-(trifluoromethyl)phenyl)piperidin-4-yloxy)isonicotinamido)piperidine-1-carboxylate] | 1000 to 5000

Same assay, conditions: compounds of Table 2 (Table 7)

SMILES | EC50 [nM]
CC(C)(C)OC(=O)N1CCC(NC(=O)c2ccc3[nH]c4c(c3c2)CN(c2ccc(F)cc2)CC4)CC1 [2-38, tert-butyl 4-(2-(4-fluorophenyl)-2,3,4,5-tetrahydro-1H-pyrido [4,3-b]indole-8-carboxamido)piperidine-1-carboxylate] | 10000 to 50000
Cn1c2c(c3cc(C(=O)NC4CCN(Cc5cccnc5)CC4)ccc31)CN(Cc1ccc(C(F)(F)F)cc1)CC2 [2-18, 5-methyl-N-(1-(pyridin-3-ylmethyl)piperidin-4-yl)-2-(4-(trifluoromethyl)benzyl)-2,3,4,5-tetrahydro-1H-pyrido[4,3-b]indole-8-carboxamide] | 1000 to 5000
Cn1c2c(c3cc(C(=O)NC4CCN(Cc5ccc(C#N)cc5)CC4)ccc31)CN(Cc1ccc(C(F)(F)F)cc1)CC2 [2-16] | < 500

Same assay, conditions: compounds of Table 3 (Table 8)

SMILES | EC50 [nM]
CC(C)(C)OC(=O)N1CCC(NC(=O)c2cnc(OC3CCN(c4ccc(C(F)(F)F)cc4)CC3)cn2)CC1 [3-19, tert-butyl 4-(5-(1-(4-(trifluoromethyl)phenyl)piperidin-4-yloxy)pyrazine-2-carboxamido)piperidine-1-carboxylate] | 1000 to 10000
O=C(c1ccc(F)cc1)N1CC2CC1CN2C(=O)c1nc2ccc(OC3CCN(c4ccc(C(F)(F)F)cc4)CC3)cc2o1 (stereo not shown) [3-13, (5-(4-fluorobenzoyl)-2,5-diazabicyclo[2.2.1]heptan-2-yl)(6-(1-(4-(trifluoromethyl)phenyl)piperidin-4-yloxy)benzo[d]oxazol-2-yl)methanone] | < 100
O=C(NC1CCN(Cc2ccc(C(F)(F)F)cc2)CC1)c1ccc2c(c1)CN(Cc1ccc(F)cc1)CC2 [3-36, 2-(4-fluorobenzyl)-N-(1-(4-(trifluoromethyl)benzyl)piperidin-4-yl)-1,2,3,4-tetrahydroisoquinoline-7-carboxamide] | 100 to 1000
NC(=O)c1ccc(CN2CC3CC2CN3C(=O)c2nc3ccc(OC4CCN(c5ccc(C(F)(F)F)cc5)CC4)cc3o2)cc1 (stereo not shown) [3-9, 4-((5-(6-(1-(4-(trifluoromethyl)phenyl)piperidin-4-yloxy)benzo[d]oxazole-2-carbonyl)-2,5-diazabicyclo[2.2.1]heptan-2-yl)methyl)benzamide] | 100 to 1000

Same assay, conditions: compounds of Table 5 (Table 10)

SMILES | EC50 [nM]
O=C(NC1CCN(Cc2ccccc2)CC1)c1ccc(OC2CCN(c3ccc(C(F)(F)F)cc3)CC2)c(F)c1 [5-23, N-(1-benzylpiperidin-4-yl)-3-fluoro-4-(1-(4-(trifluoromethyl)phenyl)piperidin-4-yloxy)benzamide] | < 1000
O=C(NC1CCN(Cc2ccccc2)CC1)c1ccc(OC2CCN(c3ccco3)CC2)c(Cl)c1 [5-11, N-(1-benzylpiperidin-4-yl)-3-chloro-4-(1-(furan-2-yl)piperidin-4-yloxy)benzamide] | 1000 to 10000
O=C(NC1CCN(Cc2ccncc2)CC1)c1ccc(OC2CCN(c3ccc(C(F)(F)F)cc3)CC2)c(F)c1 [5-28, 3-fluoro-N-(1-(pyridin-4-ylmethyl)piperidin-4-yl)-4-(1-(4-(trifluoromethyl)phenyl)piperidin-4-yloxy)benzamide] | < 1000
O=C(NC1CCN(Cc2ccccc2)CC1)c1ccc(OC2CCN(c3ccc(C(F)(F)F)cc3)CC2)c(Cl)c1 [5-17, N-(1-benzylpiperidin-4-yl)-3-chloro-4-(1-(4-(trifluoromethyl)phenyl)piperidin-4-yloxy)benzamide] | < 1000
N#Cc1ccc(CN2CCC(Oc3ccc(C(=O)NC4CCN(Cc5ccncc5)CC4)cc3)CC2)cc1 [5-83, 4-(1-(4-cyanobenzyl)piperidin-4-yloxy)-N-(1-(pyridin-4-ylmethyl)piperidin-4-yl)benzamide] | < 1000
O=C(NC1CCN(Cc2ccccc2)CC1)c1cccc(OC2CCN(Cc3ccc(C(F)(F)F)cc3)CC2)c1 [5-52, N-(1-benzylpiperidin-4-yl)-3-(1-(4-(trifluoromethyl)benzyl)piperidin-4-yloxy)benzamide] | 1000 to 10000
N#Cc1ccc(CN2CCC(Oc3ccc(C(=O)NC4CCN(Cc5ccccc5)CC4)c(Cl)c3)CC2)cc1 [5-51, N-(1-benzylpiperidin-4-yl)-2-chloro-4-(1-(4-cyanobenzyl)piperidin-4-yloxy)benzamide] | < 1000
O=C(NC1CCN(Cc2ccccc2)CC1)c1ccc(OC2CCN(Cc3ccc(OC(F)(F)F)cc3)CC2)c(F)c1 [5-57, N-(1-benzylpiperidin-4-yl)-3-fluoro-4-(1-(4-(trifluoromethoxy)benzyl)piperidin-4-yloxy)benzamide] | < 1000
